In ChEMBL document CHEMBL1136446, “Synthesis and antiproliferative activity of retroetoposide” (Bioorg Med Chem Lett, 2003):

Test system: L1210
Assay: Inhibitory activity against L1210 cell line
Format: functional, cell-based
Conditions: Mus musculus

IC50	SMILES
6.74 µM	COc1cc([C@@H]2c3cc4c(cc3[C@@H](O[C@@H]3O[C@H]5CO[C@@H](C)O[C@H]5[C@H](O)[C@@H]3O)[C@H]3C(=O)OC[C@H]23)OCO4)cc(OC)c1O
27.4 µM	COc1cc([C@@H]2c3cc4c(cc3[C@@H](O)C3C(=O)OCC32)OCO4)cc(OC)c1O (stereo partly drawn)

SMILES	IC50
COc1cc([C@@H]2c3cc4c(cc3[C@@H](O[C@@H]3O[C@@H]5CO[C@@H](C)O[C@H]5[C@H](O)[C@H]3O)[C@H]3COC(=O)[C@H]23)OCO4)cc(OC)c1O [ETOPOSIDE]	0.834 µM
